Data reported in ChEMBL document CHEMBL1150721, “Hepatoprotective activity of polyphenolic compounds from Cynara scolymus against CCl4 toxicity in isolated rat hepatocytes” (1987).

Legend:
Hepatocyte [1] = test: Hepatoprotective activity against carbon tetrachloride-induced hepatotoxicity in fasted Sprague-Dawley rat hepatocytes assessed as serum glutamic pyruvate transaminase release at 0.1 mg/ml administered before 10 mins of carbon tetrachloride challenge measured after 30 mins; assay type: functional
Hepatocyte [2] = test: Hepatoprotective activity against carbon tetrachloride-induced hepatotoxicity in fasted Sprague-Dawley rat hepatocytes assessed as serum glutamic pyruvate transaminase release at 3 mg/ml administered before 10 mins of carbon tetrachloride challenge measured after 30 mins; assay type: functional
Hepatocyte [3] = test: Hepatoprotective activity against carbon tetrachloride-induced hepatotoxicity in fasted Sprague-Dawley rat hepatocytes assessed as serum glutamate pyruvate transaminase release at 1 mg/ml administered before 10 mins of carbon tetrachloride challenge measured after 30 mins; assay type: functional
[4] = target: T1, Alanine aminotransferase 1 (Homo sapiens) (UniProt P24298); test: Effect on glutamic pyruvate transaminase activity at 1 mg/ml
T1 sequence (whole entry): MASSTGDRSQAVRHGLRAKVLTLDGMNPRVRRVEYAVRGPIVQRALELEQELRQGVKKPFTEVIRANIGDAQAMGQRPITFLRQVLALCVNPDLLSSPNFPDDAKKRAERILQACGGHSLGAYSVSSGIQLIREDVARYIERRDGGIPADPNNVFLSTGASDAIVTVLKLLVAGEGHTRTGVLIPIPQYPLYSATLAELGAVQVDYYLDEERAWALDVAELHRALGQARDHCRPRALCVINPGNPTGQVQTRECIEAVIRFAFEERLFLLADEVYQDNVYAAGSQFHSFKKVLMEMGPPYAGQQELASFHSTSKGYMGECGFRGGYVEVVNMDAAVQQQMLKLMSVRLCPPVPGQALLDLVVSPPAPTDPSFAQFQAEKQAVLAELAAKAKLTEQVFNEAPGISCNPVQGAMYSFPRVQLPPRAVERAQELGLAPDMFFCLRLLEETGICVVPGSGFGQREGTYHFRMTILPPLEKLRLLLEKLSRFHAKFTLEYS

Hepatocyte [5] = test: Hepatoprotective activity against carbon tetrachloride-induced hepatotoxicity in fasted Sprague-Dawley rat hepatocytes assessed as serum glutamic oxaloacetic transaminase release at 0.1 mg/ml administered before 10 mins of carbon tetrachloride challenge measured after 30 mins; assay type: functional
Hepatocyte [6] = test: Hepatoprotective activity against carbon tetrachloride-induced hepatotoxicity in fasted Sprague-Dawley rat hepatocytes assessed as serum glutamic pyruvate transaminase release at 0.01 mg/ml administered before 10 mins of carbon tetrachloride challenge measured after 30 mins; assay type: functional
[7] = Effect on glutamate oxaloacetic transaminase activity at 1 mg/ml
Hepatocyte [8] = test: Hepatoprotective activity against carbon tetrachloride-induced hepatotoxicity in fasted Sprague-Dawley rat hepatocytes assessed as serum glutamic oxaloacetic transaminase release at 1 mg/ml administered before 10 mins of carbon tetrachloride challenge measured after 30 mins; assay type: functional
Hepatocyte [9] = test: Hepatoprotective activity against carbon tetrachloride-induced hepatotoxicity in fasted Sprague-Dawley rat hepatocytes assessed as serum glutamic oxaloacetic transaminase release at 3 mg/ml administered before 10 mins of carbon tetrachloride challenge measured after 30 mins; assay type: functional
Hepatocyte [10] = test: Hepatoprotective activity against carbon tetrachloride-induced hepatotoxicity in fasted Sprague-Dawley rat hepatocytes assessed as serum glutamic oxaloacetic transaminase release at 0.01 mg/ml administered before 10 mins of carbon tetrachloride challenge measured after 30 mins; assay type: functional
[11] = Effect on glutamate oxaloacetic transaminase activity at 0.1 mg/ml
[12] = target: T1, Alanine aminotransferase 1 (Homo sapiens); test: Effect on glutamic pyruvate transaminase activity at 0.1 mg/ml
[13] = Effect on glutamate oxaloacetic transaminase activity at 3 mg/ml
[14] = target: T1, Alanine aminotransferase 1 (Homo sapiens); test: Effect on glutamic pyruvate transaminase activity at 3 mg/ml

Activity [4]	Activity [7]	Activity [11]	Activity [12]	Activity [13]	Activity [14]	Structure (SMILES)	Activity (Hepatocyte [1])	Activity (Hepatocyte [2])	Activity (Hepatocyte [3])	Activity (Hepatocyte [5])	Activity (Hepatocyte [6])	Activity (Hepatocyte [8])	Activity (Hepatocyte [9])	Activity (Hepatocyte [10])
97 U/L	123 U/L	–	–	–	–	O=C(O)/C=C/c1ccc(O)c(O)c1 [CAFFEIC ACID]	17.5%	16.7%	13.4%	19.9%	19%	18.6%	22.1%	21%
–	–	–	–	–	–	O=C(/C=C/c1ccc(O)c(O)c1)O[C@@H]1C[C@](O)(C(=O)O)C[C@@H](O)[C@H]1O [CHLOROGENIC ACID]	15.3%	15.9%	17.7%	19.4%	16.7%	20.6%	20.6%	19.5%
–	–	127 U/L	103 U/L	–	–	Oc1cc(O)c2c(c1)O[C@H](c1ccc(O)c(O)c1)[C@@H](O)C2 [CIANIDANOL]	14.3%	20.1%	17.3%	18.3%	13.5%	21%	22.4%	16.8%
103 U/L	126 U/L	–	–	123 U/L	110 U/L	O=C(/C=C/c1ccc(O)c(O)c1)O[C@@H]1C[C@@](OC(=O)/C=C/c2ccc(O)c(O)c2)(C(=O)O)C[C@@H](O)[C@@H]1O [CYNARIN]	16.8%	13.3%	13.9%	17.9%	16.3%	17.6%	16.5%	17.6%
111 U/L	139 U/L	–	–	–	–	O=c1cc(-c2ccc(O)c(O)c2)oc2cc(O[C@@H]3O[C@H](CO)[C@@H](O)[C@H](O)[C@H]3O)cc(O)c12 [GALUTEOLIN]	14.9%	20.9%	15.9%	20.4%	15.9%	21.1%	22.8%	21.9%
–	–	–	–	–	–	O=C(O)[C@]1(O)C[C@@H](O)[C@@H](O)[C@H](O)C1 [QUINIC ACID]	18.1%	17%	17.4%	21.9%	15.5%	21.2%	21.2%	18.4%
